Test system: T1, garlic peroxidase (Allium sativum peroxidase)
T1 construct: gene class III plant peroxidase; native, partially purified from peeled garlic (ammonium sulphate, dialysis, Sephadex G-200)
Test: absorbance change on o-dianisidine oxidation; Lineweaver-Burk plot
Format: biochemical
Details: co-substrate H2O2; 0.05 M sodium phosphate pH 6.0; 20-120 mM o-dianisidine; partially purified enzyme

Structure (SMILES): COc1cc(-c2ccc(N)c(OC)c2)ccc1N [o-dianisidine]
- Km: 25 mM

From publication PMC4226186, “Biobleaching of Industrial Important Dyes with Peroxidase Partially Purified from Garlic” (The Scientific World Journal, 2014)
